Laboratory results: patent US20260167671A1, “IMMUNOMODULATORS” (Bristol-Myers Squibb Company, priority 2021, published 2026)
Like-named read-outs stand apart in the source and are kept apart here.

Target: T1, human PD-L1 (293T-hPD-L1 cells; binding of PE-labeled PD-1-Ig) (Homo sapiens, UniProt Q9NZQ7)
T1 construct: expressed in transfected cells; host or cells: 293T (human embryonic kidney) stably over-expressing human PD-L1
Experiment: 293T-hPD-L1 Cell Binding High-Content Screening Assay (CBA)
Method: 293T-hPD-L1 Cell Binding High-Content Screening Assay (CBA).
Phycoerythrin (PE) was covalently linked to the Ig epitope tag of human PD-1-Ig and fluorescently-labeled PD-1-Ig was used for binding studies with a human embryonic kidney cell line (293T) stably over-expressing human PD-L1 (293T-hPD-L1). Briefly, 2×10^3 293T-hPD-L1 cells were seeded into 384 well plates in 20 μl of DMEM supplemented with 10% fetal calf serum and cultured overnight. 125 nl of compound was added to cells followed by 5 μl of PE-labeled PD-1-Ig (0.5 nM final), diluted in DMEM supplemented with 10% fetal calf serum, followed by incubation at 37° C. for 1 h. Cells were washed 3× in 100 μl dPBS followed by fixation with 30 μl of 4% paraformaldehyde in dPBS containing 10 μg/ml Hoechst 33342 for 30 min at room temperature. Cells were washed 3× in 100 μl of dPBS followed by final addition of 15 μl of dPBS. Data was collected and processed using a Cell Insight NXT High Content Imager and associated software.
Table 1 lists the IC50 values for representative examples of this disclosure measured in the 293T-hPD-L1 Cell Binding High-Content Screening Assay.

T1 sequence (Q9NZQ7 19-290): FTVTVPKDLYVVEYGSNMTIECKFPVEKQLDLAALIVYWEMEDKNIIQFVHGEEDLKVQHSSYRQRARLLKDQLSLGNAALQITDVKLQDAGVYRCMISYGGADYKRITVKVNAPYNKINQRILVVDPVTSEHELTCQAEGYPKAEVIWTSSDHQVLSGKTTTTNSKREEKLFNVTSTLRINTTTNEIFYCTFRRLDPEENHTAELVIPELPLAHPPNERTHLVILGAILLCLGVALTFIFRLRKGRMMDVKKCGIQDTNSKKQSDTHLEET

In the case of CCCC[C@H]1C(=O)N(C)[C@@H](CCCC)C(=O)N[C@@H](CC(C)C)C(=O)N[C@H](C(=O)NCC(=O)N[C@@H](Cc2cn(CCOCCOCCOCCOCCOCCOCCOCCOCCOCCOCCOCCNC(=O)CC[C@H](NC(=O)CCCCCCCCCOc3ccc(C(=O)O)cc3)C(=O)O)nn2)C(=O)O)CSCC(=O)N[C@@H](Cc2ccc(O)cc2)C(=O)N(C)[C@@H](C)C(=O)N[C@@H](CC(N)=O)C(=O)N2CCC[C@H]2C(=O)N[C@@H](CN)C(=O)N[C@@H](CC(C)C)C(=O)N2C[C@H](O)C[C@H]2C(=O)N[C@@H](Cc2c[nH]c3ccccc23)C(=O)N[C@@H](CCN)C(=O)N[C@@H](Cc2cn(CC(=O)O)c3ccccc23)C(=O)N1C [Example 1001], the IC50 (293T cells stably over-expressing human PD-L1, PE-labeled human PD-1-Ig 0.5 nM final, 37° C. for 1 h, read-out: 293T-hPD-L1_PD-1 IC50) is reported as 3.3 nM.

For CCCC[C@H]1C(=O)N(C)[C@@H](CCCC)C(=O)N[C@@H](CC(C)C)C(=O)N[C@H](C(=O)NCC(=O)N[C@@H](Cc2cn(CCOCCOCCOCCOCCOCCOCCOCCOCCOCCOCCOCCNC(=O)CC[C@H](NC(=O)CCCCCCCCCCCOc3ccc(C(=O)O)cc3)C(=O)O)nn2)C(=O)O)CSCC(=O)N[C@@H](Cc2ccc(O)cc2)C(=O)N(C)[C@@H](C)C(=O)N[C@@H](CC(N)=O)C(=O)N2CCC[C@H]2C(=O)N[C@@H](CN)C(=O)N[C@@H](CC(C)C)C(=O)N2C[C@H](O)C[C@H]2C(=O)N[C@@H](Cc2c[nH]c3ccccc23)C(=O)N[C@@H](CCN)C(=O)N[C@@H](Cc2cn(CC(=O)O)c3ccccc23)C(=O)N1C [Example 1003], the IC50 was 3.6 nM.
